The record followed here is ChEMBL document CHEMBL5385971, “Identification of novel phenylalanine derivatives bearing a hydroxamic acid moiety as potent quorum sensing inhibitors” (RSC Med Chem, 2024).

Activity calls are given as the source filed them. No cut-off for these calls is given here. Bounds are passed on as bounds.

The nature of experiment [1]: Inhibition of quorum sensing system in Pseudomonas aeruginosa transfected with lasB-gfp incubated for 20 hrs by fluorescence based multilabel plate reader analysis.
For experiment [2], the system named is Pseudomonas aeruginosa. As to the kind of experiment: Growth inhibition of Pseudomonas aeruginosa transfected with lasB-gfp. Format: functional, organism-based.
Experiment [3] relates to Pseudomonas aeruginosa. As to the kind of experiment: Antibiofilm activity against Pseudomonas aeruginosa PA14 assessed as inhibition of biofilm biomass at 30 uM incubated for 48 hrs by crystal violet staining based analysis relative to control. It is filed as functional.
In experiment [4] the test system is Chromobacterium violaceum. Nature of the experiment: Inhibition of Chromobacterium violaceum ATCC 31532 quorum sensing receptor CviR at 30 uM incubated for 24 hrs by absorbance based microplate reader analysis relative to control.
A short description of experiment [5]: Potency index, ratio of 4NPO IC50 to test compound IC50 for inhibition of quorum sensing system in Pseudomonas aeruginosa transfected with lasB-gfp incubated for 20 hrs by fluorescence based multilabel plate reader analysis.
The subject of experiment [6] is Chromobacterium violaceum. As to the kind of experiment: Inhibition of Chromobacterium violaceum ATCC 31532 quorum sensing receptor CviR assessed as fold change at 30 uM incubated for 24 hrs by absorbance based microplate reader analysis relative to 4NPO.

On to `O=C(N[C@@H](Cc1ccccc1)C(=O)NO)c1ccc(C2CCCCC2)cc1`, for which inhibition in experiment [1] was half-maximal at 9.44 µM (IC50). Further, the “growth inhibition (GI)” value in experiment [2] was “inactive”. Also, in experiment [3], the inhibition at 30 µM was determined as 55%. The compound further returned an inhibition in experiment [4] of 65%.

In experiment [1], `O=C(N[C@@H](Cc1ccccc1)C(=O)NO)c1cc(Cl)ccc1F` gave an IC50 of 10 µM. For the same compound, the “growth inhibition (GI)” value in experiment [2] was “inactive”. Also, the inhibition at 30 µM in experiment [3] was determined as 40%. In experiment [4], this compound came in with an inhibition of 58%.

With `O=C(Nc1ccc(Cl)cc1)c1ccc(C(=O)N[C@@H](Cc2ccccc2)C(=O)NO)cc1`, in experiment [1], the IC50 was above 100 µM. In addition, the “growth inhibition (GI)” value in experiment [2] is “inactive”. For the same compound, the inhibition at 30 µM in experiment [3] was below 1%. In experiment [4], this compound returned an inhibition below 1%.

`Cc1ccc(S(=O)(=O)Nc2ccc(C(=O)N[C@@H](Cc3ccccc3)C(=O)NO)cc2)cc1` showed an IC50 in experiment [1] of 7.12 µM. The Ratio IC50 in experiment [5] was found to be 4. In experiment [2], the “growth inhibition (GI)” value is “inactive”. Further, in experiment [3], the inhibition at 30 µM was determined as 75%. Also, in experiment [4], the inhibition is 79%. For the same compound, in experiment [6], the fold change (FC) was 1.5.

In experiment [1], `O=C(N[C@@H](Cc1ccccc1)C(=O)NO)c1ccc(COc2ccccc2)cc1` gave an IC50 of 83.5 µM. In addition, in experiment [2], the “growth inhibition (GI)” value was “inactive”. Besides, in experiment [3], the inhibition at 30 µM amounted to 20%. In experiment [4], this compound yielded an inhibition of 11%.

For the compound `O=C(Nc1ccccc1)Nc1ccc(C(=O)N[C@@H](Cc2ccccc2)C(=O)NO)cc1`, the IC50 in experiment [1] is above 100 µM. Besides, the “growth inhibition (GI)” value in experiment [2] was “inactive”. Further, the inhibition at 30 µM in experiment [3] is below 1%. In addition, in experiment [4], the inhibition was below 1%.

In experiment [1], `O=C(N[C@@H](Cc1ccccc1)C(=O)NO)c1ccc(Cl)c(Cl)c1` displayed an IC50 above 100 µM. Also, the “growth inhibition (GI)” value in experiment [2] is “inactive”. The inhibition at 30 µM in experiment [3] is below 1%. The same compound returned an inhibition in experiment [4] of 35%.

For the compound `O=C(Nc1ccccc1)c1ccc(C(=O)N[C@@H](Cc2ccccc2)C(=O)NO)cc1`, the IC50 in experiment [1] turned out to be 92.3 µM. The “growth inhibition (GI)” value in experiment [2] was “inactive”. Also, the inhibition at 30 µM in experiment [3] worked out at 11%. The compound further had an inhibition in experiment [4] below 1%.

`O=C(N[C@@H](Cc1ccccc1)C(=O)NO)c1ccc2ccccc2n1`: in experiment [1], it took 50.2 µM to reach half-maximal inhibition (IC50). In experiment [2], the “growth inhibition (GI)” value was “inactive”. Also, in experiment [3], the inhibition at 30 µM is below 1%. In experiment [4], this compound registered an inhibition below 1%.

One may read the IC50 as the point on the concentration scale where inhibition reaches its midpoint. The low end stands for higher potency, the high end for lower potency. As a reminder, the inhibition is the relative decrease from the control value, in per cent.
